Columns and labels:
Assay in all cases: relative viability (nuclei count vs DMSO), 5 days (fraction); higher = more cells survive
HCC-44 = tested on: HCC-44
Summary of the method: (§1)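 The day after seeding in 1536-well plates, lung cancer cell lines were treated by pin tool with a single drug, or with a fixed anchor-drug dose together with five library-drug doses (not always all listed) in √10 steps. After 5 days, a combined fix-and-stain solution (final 0.05% Triton X-100, 1% formaldehyde, 1 ug/ml Hoechst) was added. Nuclei counted on 4× images gave relative viability as treated counts over vehicle counts, reported as the median of duplicate plates.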

NCI-H23 = tested on: NCI-H23
Summary of the method: as §1

LCLC-103H = tested on: LCLC-103H
Summary of the method: as §1

HCC-827 = tested on: HCC-827
Summary of the method: as §1

A-427 = tested on: A-427
Summary of the method: as §1

NCI-H441 = tested on: NCI-H441
Summary of the method: as §1

EKVX = tested on: EKVX
Summary of the method: as §1

NCI-H596 = tested on: NCI-H596
Summary of the method: as §1

COR-L 105 = tested on: COR-L 105
Summary of the method: as §1

NCI-H1437 = tested on: NCI-H1437
Summary of the method: as §1

HARA = tested on: HARA
Summary of the method: as §1

HCC-15 = tested on: HCC-15
Summary of the method: as §1

NCI-H1975 = tested on: NCI-H1975
Summary of the method: as §1

NCI-H650 = tested on: NCI-H650
Summary of the method: as §1

201T = tested on: 201T
Summary of the method: as §1

NCI-H838 = tested on: NCI-H838
Summary of the method: as §1

NCI-H1792 = tested on: NCI-H1792
Summary of the method: as §1

NCI-H1666 = tested on: NCI-H1666
Summary of the method: as §1

COR-L23 = tested on: COR-L23
Summary of the method: as §1

NCI-H520 = tested on: NCI-H520
Summary of the method: as §1

Question: `C[C@@H]1CN(CC(=O)Nc2ccc3c(c2)Cc2cccc(-c4cc(=O)cc(N5CCOCC5)o4)c2S3)C[C@H](C)O1` + CC(C)C[C@H](NC(=O)[C@H](Cc1ccccc1)NC(=O)c1cnccn1)B(O)O [Bortezomib] (partner 0.002 µM) was tested. Which relative viability (HCC-44; first compound 0.04 µM) did it give?
Answer: The relative viability was 0.952.

Question: And the relative viability (HCC-44; first compound 0.1265 µM)?
Answer: Its relative viability is 0.938.

Question: What about the relative viability (HCC-44; first compound 0.4 µM) of the same compound?
Answer: Its relative viability is 0.982.

Question: And the relative viability (HCC-44; first compound 4 µM)?
Answer: Its relative viability is 0.796.

Question: And the relative viability (NCI-H23; first compound 0.04 µM)?
Answer: The relative viability was 1.27.

Question: And the relative viability (NCI-H23; first compound 0.1265 µM)?
Answer: Its relative viability is 1.21.

Question: What about the relative viability (NCI-H23; first compound 0.4 µM) of the same compound?
Answer: The relative viability was 1.03.

Question: And the relative viability (NCI-H23; first compound 4 µM)?
Answer: The relative viability was 0.991.

Question: And the relative viability (LCLC-103H; first compound 0.04 µM)?
Answer: The relative viability was 1.19.

Question: What about the relative viability (LCLC-103H; first compound 0.1265 µM) of the same compound?
Answer: The relative viability was 1.03.

Question: And the relative viability (LCLC-103H; first compound 0.4 µM)?
Answer: The relative viability was 1.09.

Question: And the relative viability (LCLC-103H; first compound 4 µM)?
Answer: The relative viability was 0.999.

Question: What about the relative viability (HCC-827; first compound 0.04 µM) of the same compound?
Answer: The relative viability was 1.01.

Question: And the relative viability (HCC-827; first compound 0.1265 µM)?
Answer: Its relative viability is 1.02.

Question: And the relative viability (HCC-827; first compound 0.4 µM)?
Answer: The relative viability was 1.06.

Question: And the relative viability (HCC-827; first compound 4 µM)?
Answer: The relative viability was 1.09.

Question: What about the relative viability (A-427; first compound 0.04 µM) of the same compound?
Answer: Its relative viability is 1.02.

Question: What about the relative viability (A-427; first compound 0.1265 µM) of the same compound?
Answer: The relative viability was 0.993.

Question: What about the relative viability (A-427; first compound 0.4 µM) of the same compound?
Answer: Its relative viability is 0.952.

Question: And the relative viability (A-427; first compound 4 µM)?
Answer: The relative viability was 1.03.

Question: And the relative viability (NCI-H441; first compound 0.04 µM)?
Answer: The relative viability was 0.6.

Question: What about the relative viability (NCI-H441; first compound 0.4 µM) of the same compound?
Answer: Its relative viability is 0.445.

Question: And the relative viability (NCI-H441; first compound 4 µM)?
Answer: Its relative viability is 0.489.

Question: What about the relative viability (EKVX; first compound 0.04 µM) of the same compound?
Answer: Its relative viability is 1.19.

Question: And the relative viability (EKVX; first compound 0.1265 µM)?
Answer: The relative viability was 1.02.

Question: What about the relative viability (EKVX; first compound 0.4 µM) of the same compound?
Answer: Its relative viability is 0.945.

Question: And the relative viability (EKVX; first compound 4 µM)?
Answer: Its relative viability is 0.705.

Question: And the relative viability (NCI-H596; first compound 0.04 µM)?
Answer: Its relative viability is 0.937.

Question: And the relative viability (NCI-H596; first compound 0.1265 µM)?
Answer: Its relative viability is 1.12.

Question: And the relative viability (NCI-H596; first compound 0.4 µM)?
Answer: Its relative viability is 1.01.

Question: And the relative viability (NCI-H596; first compound 4 µM)?
Answer: Its relative viability is 0.923.

Question: What about the relative viability (COR-L 105; first compound 0.04 µM) of the same compound?
Answer: The relative viability was 0.741.

Question: What about the relative viability (COR-L 105; first compound 0.1265 µM) of the same compound?
Answer: The relative viability was 0.896.

Question: And the relative viability (COR-L 105; first compound 0.4 µM)?
Answer: Its relative viability is 1.1.

Question: What about the relative viability (COR-L 105; first compound 4 µM) of the same compound?
Answer: The relative viability was 0.484.

Question: What about the relative viability (NCI-H1437; first compound 0.04 µM) of the same compound?
Answer: The relative viability was 0.486.

Question: And the relative viability (NCI-H1437; first compound 0.1265 µM)?
Answer: Its relative viability is 0.529.

Question: What about the relative viability (NCI-H1437; first compound 0.4 µM) of the same compound?
Answer: Its relative viability is 0.489.

Question: What about the relative viability (NCI-H1437; first compound 4 µM) of the same compound?
Answer: The relative viability was 0.45.

Question: And the relative viability (HARA; first compound 0.04 µM)?
Answer: Its relative viability is 1.14.

Question: And the relative viability (HARA; first compound 0.1265 µM)?
Answer: The relative viability was 1.15.

Question: What about the relative viability (HARA; first compound 0.4 µM) of the same compound?
Answer: Its relative viability is 1.09.

Question: What about the relative viability (HARA; first compound 4 µM) of the same compound?
Answer: The relative viability was 1.05.

Question: What about the relative viability (HCC-15; first compound 0.04 µM) of the same compound?
Answer: Its relative viability is 1.

Question: What about the relative viability (HCC-15; first compound 0.1265 µM) of the same compound?
Answer: Its relative viability is 0.948.

Question: What about the relative viability (HCC-15; first compound 0.4 µM) of the same compound?
Answer: The relative viability was 1.03.

Question: And the relative viability (HCC-15; first compound 4 µM)?
Answer: The relative viability was 0.836.

Question: And the relative viability (NCI-H1975; first compound 0.04 µM)?
Answer: The relative viability was 0.394.

Question: What about the relative viability (NCI-H1975; first compound 0.1265 µM) of the same compound?
Answer: The relative viability was 0.415.

Question: What about the relative viability (NCI-H1975; first compound 0.4 µM) of the same compound?
Answer: Its relative viability is 0.39.

Question: What about the relative viability (NCI-H1975; first compound 4 µM) of the same compound?
Answer: Its relative viability is 0.27.

Question: What about the relative viability (NCI-H650; first compound 0.04 µM) of the same compound?
Answer: Its relative viability is 0.742.

Question: And the relative viability (NCI-H650; first compound 0.1265 µM)?
Answer: Its relative viability is 0.801.

Question: What about the relative viability (NCI-H650; first compound 0.4 µM) of the same compound?
Answer: Its relative viability is 0.761.

Question: And the relative viability (NCI-H650; first compound 4 µM)?
Answer: Its relative viability is 0.552.

Question: What about the relative viability (201T; first compound 0.04 µM) of the same compound?
Answer: The relative viability was 1.12.

Question: What about the relative viability (201T; first compound 0.1265 µM) of the same compound?
Answer: Its relative viability is 1.04.

Question: What about the relative viability (201T; first compound 0.4 µM) of the same compound?
Answer: The relative viability was 1.16.

Question: What about the relative viability (201T; first compound 4 µM) of the same compound?
Answer: The relative viability was 1.09.

Question: What about the relative viability (NCI-H838; first compound 0.04 µM) of the same compound?
Answer: The relative viability was 0.715.

Question: What about the relative viability (NCI-H838; first compound 0.1265 µM) of the same compound?
Answer: The relative viability was 0.689.

Question: What about the relative viability (NCI-H838; first compound 0.4 µM) of the same compound?
Answer: The relative viability was 0.865.

Question: What about the relative viability (NCI-H838; first compound 4 µM) of the same compound?
Answer: The relative viability was 0.643.

Question: What about the relative viability (NCI-H1792; first compound 0.04 µM) of the same compound?
Answer: Its relative viability is 0.939.

Question: And the relative viability (NCI-H1792; first compound 0.1265 µM)?
Answer: The relative viability was 0.913.

Question: And the relative viability (NCI-H1792; first compound 0.4 µM)?
Answer: Its relative viability is 0.924.

Question: What about the relative viability (NCI-H1792; first compound 4 µM) of the same compound?
Answer: Its relative viability is 0.859.

Question: And the relative viability (NCI-H1666; first compound 0.04 µM)?
Answer: The relative viability was 0.872.

Question: What about the relative viability (NCI-H1666; first compound 0.1265 µM) of the same compound?
Answer: Its relative viability is 0.993.

Question: And the relative viability (NCI-H1666; first compound 0.4 µM)?
Answer: Its relative viability is 0.823.

Question: And the relative viability (NCI-H1666; first compound 4 µM)?
Answer: The relative viability was 0.643.

Question: What about the relative viability (COR-L23; first compound 0.04 µM) of the same compound?
Answer: The relative viability was 0.975.

Question: And the relative viability (COR-L23; first compound 0.1265 µM)?
Answer: Its relative viability is 0.996.

Question: What about the relative viability (COR-L23; first compound 0.4 µM) of the same compound?
Answer: The relative viability was 0.984.

Question: What about the relative viability (COR-L23; first compound 4 µM) of the same compound?
Answer: Its relative viability is 0.795.

Question: And the relative viability (NCI-H520; first compound 0.04 µM)?
Answer: The relative viability was 0.906.

Question: What about the relative viability (NCI-H520; first compound 0.1265 µM) of the same compound?
Answer: Its relative viability is 0.671.

Question: What about the relative viability (NCI-H520; first compound 0.4 µM) of the same compound?
Answer: The relative viability was 0.247.

Question: What about the relative viability (NCI-H520; first compound 4 µM) of the same compound?
Answer: The relative viability was 0.584.
